The source of these data is publication PMC4215169 (Nature communications, 2014).

One assay deals with HCV protease. Particulars: cited from earlier work.
In the next assay the target is HCV protease D168Y (Hepatitis C virus genotype 1a, UniProt P27958, D1194Y). In words: biochemical.
In the next assay the target is wild-type HCV protease (Hepatitis C virus genotype 1a, UniProt P27958). It is filed as biochemical.
The target of the next assay is HCV protease D168E (Hepatitis C virus genotype 1a, UniProt P27958, D1194E). In words: biochemical.

`C=C[C@@H]1C[C@]1(NC(=O)[C@@H]1C[C@@H](Oc2ncc(OC)c3ccc(Cl)cc23)CN1C(=O)[C@@H](NC(=O)OC(C)(C)C)C(C)(C)C)C(=O)NS(=O)(=O)C1CC1` [asunaprevir]: in the assay on HCV protease, the IC50 (commonly the concentration that inhibits the measured activity by half) was about 1 nM.
Regarding `CC(C)(C)OC(=O)N[C@H]1CCCCC/C=C\[C@@H]2C[C@@]2(C(=O)NS(=O)(=O)C2CC2)NC(=O)[C@@H]2C[C@@H](OC(=O)N3Cc4cccc(F)c4C3)CN2C1=O` [danoprevir], the 50% inhibitory concentration (IC50) against HCV protease D168Y was 34.4 ± 2.8 nM; with HCV protease, about 0.3 nM; against wild-type HCV protease it was 1.3 ± 0.1 nM; against HCV protease D168E, 38.9 ± 2.4 nM.
